# Assay results: PubChem BioAssay (NCI)
#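 Compound exposure: 48 hours, 5 concentrations, 96-well plates. The concentration for 50% growth inhibition is given as GI50. TGI is the concentration that stops growth completely.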
# How the values were obtained:
# Assay in all cases: DTP human tumour cell line panel, 48 h
# 786-0 renal = tested on: 786-0 renal
# A498 renal = tested on: A498 renal
# A549 NSCLC = tested on: A549 NSCLC
# ACHN renal = tested on: ACHN renal
# BT-549 breast = tested on: BT-549 breast
# CAKI-1 renal = tested on: CAKI-1 renal
# CCRF-CEM leukemia = tested on: CCRF-CEM leukemia
# COLO 205 colon = tested on: COLO 205 colon
# DU-145 prostate = tested on: DU-145 prostate
# EKVX NSCLC = tested on: EKVX NSCLC
# HCC-2998 colon = tested on: HCC-2998 colon
# HCT-116 colon = tested on: HCT-116 colon
# HCT-15 colon = tested on: HCT-15 colon
# HL-60(TB) leukemia = tested on: HL-60(TB) leukemia
# HOP-62 NSCLC = tested on: HOP-62 NSCLC
# HOP-92 NSCLC = tested on: HOP-92 NSCLC
# HS 578T breast = tested on: HS 578T breast
# HT29 colon = tested on: HT29 colon
# IGROV1 ovarian = tested on: IGROV1 ovarian
# K-562 leukemia = tested on: K-562 leukemia
# KM12 colon = tested on: KM12 colon
# LOX IMVI melanoma = tested on: LOX IMVI melanoma
# M14 melanoma = tested on: M14 melanoma
# MALME-3M melanoma = tested on: MALME-3M melanoma
# MCF7 breast = tested on: MCF7 breast
# MDA-MB-231 breast = tested on: MDA-MB-231 breast
# MDA-MB-435 = tested on: MDA-MB-435
# MOLT-4 leukemia = tested on: MOLT-4 leukemia
# NCI-H226 lung = tested on: NCI-H226 lung
# NCI-H23 lung = tested on: NCI-H23 lung
# NCI-H460 lung = tested on: NCI-H460 lung
# NCI-H522 lung = tested on: NCI-H522 lung
# NCI/ADR-RES ovarian = tested on: NCI/ADR-RES ovarian
# OVCAR-3 ovarian = tested on: OVCAR-3 ovarian
# OVCAR-4 ovarian = tested on: OVCAR-4 ovarian
# OVCAR-5 ovarian = tested on: OVCAR-5 ovarian
# OVCAR-8 ovarian = tested on: OVCAR-8 ovarian
# PC-3 prostate = tested on: PC-3 prostate
# RPMI-8226 leukemia = tested on: RPMI-8226 leukemia
# RXF 393 renal = tested on: RXF 393 renal
# SF-268 CNS = tested on: SF-268 CNS
# SF-295 CNS = tested on: SF-295 CNS
# SF-539 CNS = tested on: SF-539 CNS
# SK-MEL-2 melanoma = tested on: SK-MEL-2 melanoma
# SK-MEL-28 melanoma = tested on: SK-MEL-28 melanoma
# SK-MEL-5 melanoma = tested on: SK-MEL-5 melanoma
# SK-OV-3 ovarian = tested on: SK-OV-3 ovarian
# SN12C renal = tested on: SN12C renal
# SNB-19 CNS = tested on: SNB-19 CNS
# SNB-75 CNS = tested on: SNB-75 CNS
# SR leukemia = tested on: SR leukemia
# SW-620 colon = tested on: SW-620 colon
# T-47D breast = tested on: T-47D breast
# TK-10 renal = tested on: TK-10 renal
# U251 CNS = tested on: U251 CNS
# UACC-257 melanoma = tested on: UACC-257 melanoma
# UACC-62 melanoma = tested on: UACC-62 melanoma
# UO-31 renal = tested on: UO-31 renal
compound,measurement,setting,value
COc1ccc2[nH]c(O)c(C(=Nc3ccc(N(C)C(=O)CN4CCN(C)CC4)cc3)c3ccccc3)c2c1,GI50,786-0 renal,1.9 µM
same,TGI,786-0 renal,5.52 µM
same,GI50,A498 renal,1.64 µM
same,TGI,A498 renal,3.45 µM
same,GI50,A549 NSCLC,2.73 µM
same,TGI,A549 NSCLC,14.1 µM
same,GI50,ACHN renal,2.54 µM
same,TGI,ACHN renal,10.8 µM
same,GI50,BT-549 breast,1.55 µM
same,TGI,BT-549 breast,3.19 µM
same,GI50,CAKI-1 renal,0.847 µM
same,TGI,CAKI-1 renal,5.92 µM
same,GI50,CCRF-CEM leukemia,2.68 µM
same,TGI,CCRF-CEM leukemia,10.4 µM
same,GI50,COLO 205 colon,0.575 µM
same,TGI,COLO 205 colon,2.9 µM
same,GI50,DU-145 prostate,2.66 µM
same,TGI,DU-145 prostate,11.8 µM
same,GI50,EKVX NSCLC,3.94 µM
same,TGI,EKVX NSCLC,16.2 µM
same,GI50,HCC-2998 colon,2.47 µM
same,TGI,HCC-2998 colon,8.59 µM
same,GI50,HCT-116 colon,0.562 µM
same,TGI,HCT-116 colon,8.37 µM
same,GI50,HCT-15 colon,2.65 µM
same,TGI,HCT-15 colon,12 µM
same,GI50,HL-60(TB) leukemia,0.88 µM
same,TGI,HL-60(TB) leukemia,2.86 µM
same,GI50,HOP-62 NSCLC,1.12 µM
same,TGI,HOP-62 NSCLC,12.3 µM
same,GI50,HOP-92 NSCLC,0.436 µM
same,TGI,HOP-92 NSCLC,5.55 µM
same,GI50,HS 578T breast,1.09 µM
same,TGI,HS 578T breast,4.67 µM
same,GI50,HT29 colon,0.341 µM
same,TGI,HT29 colon,10.8 µM
same,GI50,IGROV1 ovarian,1.36 µM
same,TGI,IGROV1 ovarian,10.1 µM
same,GI50,K-562 leukemia,0.609 µM
same,TGI,K-562 leukemia,13.8 µM
same,GI50,KM12 colon,0.0197 µM
same,TGI,KM12 colon,10.5 µM
same,GI50,LOX IMVI melanoma,1.02 µM
same,TGI,LOX IMVI melanoma,2.19 µM
same,GI50,M14 melanoma,1.26 µM
same,TGI,M14 melanoma,2.89 µM
same,GI50,MALME-3M melanoma,1.27 µM
same,TGI,MALME-3M melanoma,2.85 µM
same,GI50,MCF7 breast,0.725 µM
same,TGI,MCF7 breast,3.62 µM
same,GI50,MDA-MB-231 breast,1.88 µM
same,TGI,MDA-MB-231 breast,5.17 µM
same,GI50,MDA-MB-435,1.29 µM
same,TGI,MDA-MB-435,11.3 µM
same,GI50,MOLT-4 leukemia,1.45 µM
same,TGI,MOLT-4 leukemia,4.99 µM
same,GI50,NCI-H226 lung,2.27 µM
same,TGI,NCI-H226 lung,15.6 µM
same,GI50,NCI-H23 lung,1.73 µM
same,TGI,NCI-H23 lung,12.2 µM
same,GI50,NCI-H460 lung,2.83 µM
same,TGI,NCI-H460 lung,11.1 µM
same,GI50,NCI-H522 lung,2.52 µM
same,TGI,NCI-H522 lung,8.96 µM
same,GI50,NCI/ADR-RES ovarian,11.1 µM
same,TGI,NCI/ADR-RES ovarian,29.7 µM
same,GI50,OVCAR-3 ovarian,2.9 µM
same,TGI,OVCAR-3 ovarian,7.31 µM
same,GI50,OVCAR-4 ovarian,2.13 µM
same,TGI,OVCAR-4 ovarian,12.6 µM
same,GI50,OVCAR-5 ovarian,2.68 µM
same,TGI,OVCAR-5 ovarian,16.4 µM
same,GI50,OVCAR-8 ovarian,3.24 µM
same,TGI,OVCAR-8 ovarian,14 µM
same,GI50,PC-3 prostate,3.52 µM
same,TGI,PC-3 prostate,17.5 µM
same,GI50,RPMI-8226 leukemia,2.5 µM
same,TGI,RPMI-8226 leukemia,7.53 µM
same,GI50,RXF 393 renal,1.04 µM
same,TGI,RXF 393 renal,2.36 µM
same,GI50,SF-268 CNS,2.1 µM
same,TGI,SF-268 CNS,7.55 µM
same,GI50,SF-295 CNS,4.65 µM
same,TGI,SF-295 CNS,15.8 µM
same,GI50,SF-539 CNS,1.04 µM
same,TGI,SF-539 CNS,2.27 µM
same,GI50,SK-MEL-2 melanoma,2.12 µM
same,TGI,SK-MEL-2 melanoma,5.37 µM
same,GI50,SK-MEL-28 melanoma,2.11 µM
same,TGI,SK-MEL-28 melanoma,6.12 µM
same,GI50,SK-MEL-5 melanoma,1.75 µM
same,TGI,SK-MEL-5 melanoma,3.43 µM
same,GI50,SK-OV-3 ovarian,2.96 µM
same,TGI,SK-OV-3 ovarian,9.32 µM
same,GI50,SN12C renal,0.74 µM
same,TGI,SN12C renal,10.4 µM
same,GI50,SNB-19 CNS,3.72 µM
same,TGI,SNB-19 CNS,10.7 µM
same,GI50,SNB-75 CNS,1.07 µM
same,TGI,SNB-75 CNS,2.64 µM
same,GI50,SR leukemia,0.23 µM
same,TGI,SR leukemia,1.45 µM
same,GI50,SW-620 colon,1.78 µM
same,TGI,SW-620 colon,11.4 µM
same,GI50,T-47D breast,3.54 µM
same,TGI,T-47D breast,15.9 µM
same,GI50,TK-10 renal,1.99 µM
same,TGI,TK-10 renal,7.08 µM
same,GI50,U251 CNS,1.84 µM
same,TGI,U251 CNS,5.27 µM
same,GI50,UACC-257 melanoma,1.73 µM
same,TGI,UACC-257 melanoma,4.08 µM
same,GI50,UACC-62 melanoma,5.01 µM
same,TGI,UACC-62 melanoma,16.4 µM
same,GI50,UO-31 renal,1.45 µM
same,TGI,UO-31 renal,8.45 µM
